One data set deals with Egr-1 protein. In words: Western blot of Egr-1 protein in endothelial cells. Conditions: for insulin-inducible Egr-1 protein synthesis: 0.8 μM oligonucleotide. Type of data set: cell-based, bovine. How it is done: Antisense oligonucleotide delivery and Western blot analysis. Growth arrested cells in 100 mm dishes were incubated with the indicated oligonucleotides 24 h and 48 h after the initial change of medium. When oligonucleotide was added a second time, the cells were incubated with various concentrations of insulin and harvest 1 h subsequently. […] Lysates were resolved by electrophoresis on 8% denaturing SDS-polyacrylamide gels, transferred to PDVF nylon membranes (NEN-DuPont), blocked with skim milk powder, then incubated with polyclonal antibodies to Egr-1 (Santa Cruz Biotechnology, Inc) and monoclonal horseradish peroxidase-linked mouse anti-rabbit Ig secondary antibodies followed by chemiluminescent detection (NEN-DuPont).
On the technique in general: A western blot detects proteins with antibodies after separation by electrophoresis.

The subject of data set [1] is bovine aortic endothelial cells. Nature of the data set: 3H-thymidine incorporation into DNA, aortic endothelial cells. It counts as cell-based. Conditions: for basal endothelial DNA synthesis: no added insulin, 0.25% serum; for insulin-inducible DNA synthesis: inhibitor added 2 h before insulin 500 nM, PD98059 10 and 30 μM, wortmannin 0.3 and 1 μM, SB202190 100 and 500 nM. How it is done: ^3H-Thymidine incorporation into DNA. Growth-arrested endothelial cells at 90% confluence in 96 well plates were incubated twice with the oligonucleotides prior to the addition of insulin. […] After 18 h of exposure to insulin, the cells were pulsed with 200,000 cpm/well of methyl-3H thymidine (NEN-DuPont) for 6 h.
In general terms: Uptake of a labelled nucleoside into DNA is a usual measure of proliferation.

The test system is the same in data set [2]. Nature of the data set: In vitro injury (scrape) endothelial regrowth. Type of data set: cell-based. As to conditions: for endothelial regrowth stimulated by insulin after injury: 0.8 μM oligonucleotide. How it is done: In vitro injury. Growth-arrested cells at 90% confluence were incubated with antisense oligonucleotides and insulin at various concentrations as described above, then were scraped by drawing a sterile wooden toothpick across the monolayer (Khachigian et al., 1996). Following 48-72 h, the cells were fixed in 4% formalin, stained with hemotoxylin/eosin then photographed.

Another data set deals with Primary rat aortic SMCs. Nature of the data set: SMC proliferation assay (Coulter counter). Type of data set: cell-based. How it is done: Culture conditions and DNAzyme transfection. Primary rat aortic SMCs were obtained from Cell Applications, Inc., and grown in Waymouth's medium, pH 7.4, containing 10% fetal bovine serum (FBS), 50 μg/ml streptomycin and 50 IU/ml penicillin at 37° C. in a humidified atmosphere of 5% CO2 SMCs were used in experiments between passages 3-7. Pup rat SMCs (WKY12-22 (as described in Lernire et al, 1994, the entire contents of which are incorporated herein by reference)) were grown under similar conditions. […] After 18 h, the cells were washed with phosphate-buffered saline (PBS), pH 7.4 prior to transfection a second time in 5% FBS.
Assays of cell proliferation. Growth-quiescent SMCs in 96-well titer plates (Nunc-InterMed) were transfected with ED5 or ED5SCR as above, then exposed to 5% FBS at 37° C. for 72 h. The cells were rinsed with PBS, pH 7.4, trypsinized and the suspension was quantitated using an automated Coulter counter.

Data set [3] concerns Egr-1. In words: Transient transfection CAT reporter assay (pEBS1^3foscat), Egr-1-dependent gene expression. Type of data set: cell-based, bovine. Conditions: growth-arrested endothelial cells, 24 h; glucose 5 to 30 mM, insulin 100 nM, FGF-2 25 ng/ml. How it is done:
Transient transfection analysis and, CAT assay. The endothelial cells were grown to 60-70% confluence in 100 mm. dishes and transiently transfected with 10 μg of the indicated chloramphenicol acetyl transferase (CAT)-based promoter reporter construct using FuGENE6 (Roche). The cells were rendered growth-quiescent by incubation 48 h in 0.25% FBS, and stimulated with various agonists for 24 h prior to harvest and assessment of CAT activity. CAT activity was measured and normalized to the concentration of protein in the lysates (determined by Biorad Protein Assay) as previously described (Khachigian, L. M. and Chesterman, C. N. (1999), Circ. Res., 84:1258-1267).

The subject of the next data set is Egr-1 mRNA. Nature of the data set: RT-PCR and Northern blot of Egr-1 mRNA in endothelial cells. It counts as cell-based, bovine. Conditions: growth-quiescent endothelial cells, within 1 h of agonist. How it is done: Northern blot analysis. Total RNA (12 μg/well) of growth-arrested endothelial cells (prepared using TRIzol Reagent (Life Technologies) in accordance with the manufacturer's instructions) previously exposed to various agonists for 1 h was resolved by electrophoresis on denaturing 1% agarose-formialdehyde gels. Following transfer overnight to Hybond-N+ nylon membranes (Amersham), the blots were hybridized with ^32P-labeled Egr-1 cDNA prepared using the Nick Translation Kit overnight (Roche). The membranes were washed and radioactivity visualized by autoradiography as previously described (Khachigian et al., 1995).
RT-PCR. Reverse transcription was performed with 8 μg of total RNA using M-MLV reverse transcriptase. Egr-1 cDNA was amplified (334 bp product (Delbridge, G. J. and Khachigian, L. M. (1997), Circ. Res., 81:282-288)) using Taq polymerase by heating for 1 min at 94° C., and cycling through 94° C. for 1 min, 94° C. for 1 min, 55° C. for 1 min, and 72° C. for 1 min. Following thirty cycles, a 5 min extension at 72° C. was carried out. Samples were electrophoresed on 1.5% agarose gel containing ethidium bromide and photographed under ultraviolet illumination. β-actin amplification (690 bp product) was performed essentially as above. The sequences of the primers were: Egr-1 forward primer (5′-GCA CCC AAC AGT GGC AAC-3′) (SEQ ID NO:18), Egr-1 reverse primer (5′-GGG ATC ATG GGA ACC TGG-3′) (SEQ ID NO: 19), β-actin forward primer (5′-TGACGGGGTCACCCACACTGTGCCCATCTA 3′) (SEQ ID NO:20), and β-actin reverse primer (5′-CTAGAAGCATTTGCGGTGGACGATGGAGGG-3′) (SEQ ID NO:21).

The next data set concerns NGFI-A protein. In words: Western blot of NGFI-A protein in SMCs. Type of data set: cell-based, rat. As to conditions: 5% FBS 1 h. How it is done: Culture conditions and DNAzyme transfection. Primary rat aortic SMCs were obtained from Cell Applications, Inc., and grown in Waymouth's medium, pH 7.4, containing 10% fetal bovine serum (FBS), 50 μg/ml streptomycin and 50 IU/ml penicillin at 37° C. in a humidified atmosphere of 5% CO2 SMCs were used in experiments between passages 3-7. Pup rat SMCs (WKY12-22 (as described in Lernire et al, 1994, the entire contents of which are incorporated herein by reference)) were grown under similar conditions. Subconfluent (60-70%) SMCs were incubated in serum-free medium (SFM) for 6 h prior to DNAzyme (or antisense ODN, where indicated) transfection (0.1 μM) using Superfect in accordance with manufacturer's instructions (Qiagen). After 18 h, the cells were washed with phosphate-buffered saline (PBS), pH 7.4 prior to transfection a second time in 5% FBS.
Western blot analysis. Growth-quiescent SMCs in 100 mm plates (Nunc-InterMed) were transfected with ED5 or ED5SCR as above, and incubated with 5% FBS for 1 h. The cells were washed in cold PBS, pH 7.4, and extracted in 150 mM NaCl, 50 mM Tris-HCI, pH 7.5, […], 0.1% SDS, 1% Triton X-100, 5 mM EDTA, 1% trasylol, 10μ/ml leupeptin, 1% aprotinin and 2 mM PMSF. Twenty four μg protein samples were loaded onto 10% denaturing SDS-polyacrylamide gels and electroblotted onto PVDF nylon membranes (NEN-DuPont). […]

Data set [4] concerns EGR-1. Nature of the data set: Western blot of EGR-1 in HepG2 cells. It counts as cell-based, human.

Strand notation (5' to 3'): a small letter for the sugar, then the base; units joined by * are phosphorothioate-linked, units joined directly phosphodiester-linked; [ ] holds rarer units or linkages, { } end groups; capitals alone tell only the bases. [invdT] = inverted (3'-3') thymidine; d = 2'-deoxy (DNA)

Chain of EGR-1 (P18146 whole entry): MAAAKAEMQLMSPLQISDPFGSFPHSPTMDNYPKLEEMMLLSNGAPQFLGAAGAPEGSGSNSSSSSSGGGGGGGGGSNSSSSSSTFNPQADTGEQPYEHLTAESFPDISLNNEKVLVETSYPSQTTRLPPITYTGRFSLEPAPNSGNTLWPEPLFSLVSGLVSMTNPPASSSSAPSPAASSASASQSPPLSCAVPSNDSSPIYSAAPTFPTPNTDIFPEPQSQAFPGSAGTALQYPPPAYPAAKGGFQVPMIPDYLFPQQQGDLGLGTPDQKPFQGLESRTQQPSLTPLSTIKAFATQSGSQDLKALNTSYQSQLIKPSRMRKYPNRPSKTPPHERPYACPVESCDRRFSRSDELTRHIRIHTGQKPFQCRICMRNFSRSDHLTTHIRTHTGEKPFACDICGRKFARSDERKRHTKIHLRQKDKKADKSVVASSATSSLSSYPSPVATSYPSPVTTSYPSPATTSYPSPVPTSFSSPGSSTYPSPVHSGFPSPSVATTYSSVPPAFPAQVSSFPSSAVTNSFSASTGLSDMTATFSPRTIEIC

With “AS2: Phosphorothioate-linked antisense oligonucleotide to translational start site of Egr-1 mRNA, 5′-CsTsTsGsGsCsCsGsCsTsGsCsCsAsT-3′ (DNA dC*dT*dT*dG*dG*dC*dC*dG*dC*dT*dG*dC*dC*dA*dT)”, the “insulin-inducible Egr-1 protein synthesis” value in the data set with Egr-1 protein was “inhibited”. The “insulin-inducible 3H-thymidine incorporation” value in data set [1] (0.4 μM oligonucleotide (vs 0.8 μM), insulin 500 nM) is on record as “less effectively”. In data set [1] (0.8 μM oligonucleotide, insulin 500 nM and 1000 nM), the “DNA synthesis inducible by insulin” value is “significantly inhibited”. Further, in data set [1] (0.8 μM oligonucleotide), the “basal endothelial DNA synthesis” value is recorded as “inhibited”. The “endothelial regrowth stimulated by insulin after injury” value in data set [2] is reported as “significantly inhibited”. Besides, the “inhibition of SMC proliferation stimulated by serum” value in the data set on Primary rat aortic SMCs (0.1 μM, 5% FBS, 3 days) is given as “failed to inhibit proliferation”. Also, the SMC growth entry in the data set on Primary rat aortic SMCs (1 μM) was “able to inhibit SMC growth”.

Take fibroblast growth factor-2 [FGF-2]: in the data set on Egr-1 [3], the “Egr-1 binding activity (CAT reporter activity)” value (shortened to “Egr-1 binding activity”) is reported as “increased”. Moreover, the “Egr-1 mRNA levels” value in the data set on Egr-1 mRNA is given as “elevated steady-state Egr-1 mRNA levels”.

In the case of insulin, the “Egr-1 binding activity” value in the data set on Egr-1 [3] was “did increase”. Moreover, the “Egr-1 mRNA levels” value with Egr-1 mRNA is “elevated steady-state Egr-1 mRNA levels”. The Egr-1 protein synthesis result in the data set with Egr-1 protein (insulin 100 nM and 500 nM, within 1 h) is recorded as “induced Egr-1 protein synthesis”. Further, the “increase in DNA synthesis” value in data set [1] (insulin 100 nM) is 100%; in data set [1] (insulin 500 nM), 200%. Further, the “population of cells in the denuded zone after injury” value in data set [2] (insulin 500 nM at time of injury, 3 days) was “significantly increased”.

Regarding “AS2C: size-matched phosphorothioate-linked counterpart of AS2 with similar base composition, 5′-GsCsAsCsTsTsCsTsGsCsTsGsTsCsC-3′ (DNA dG*dC*dA*dC*dT*dT*dC*dT*dG*dC*dT*dG*dT*dC*dC) [reference compound]”, in the data set on Egr-1 protein, the “insulin-inducible Egr-1 protein synthesis” value is on record as “lack of attenuation”. In addition, the “basal endothelial DNA synthesis” value in data set [1] (0.8 μM oligonucleotide) is “little effect”. Further, in data set [2], the “endothelial regrowth stimulated by insulin after injury” value is listed as “not significantly different”.

For the compound “EDC: DNAzyme with identical catalytic domain flanked by nonsense arms, 5′-CGCCATTAGGCTAGCTACAACGACCTAGTGAT-3′; 3′T inverted (DNA CGCCATTAGGCTAGCTACAACGACCTAGTGA; DNA, [invdT] at 3' end, backbone not given here)”, in the data set with NGFI-A protein, the “serum-induction of NGFI-A protein” value was “neither ED5SCR nor EDC, a DNAzyme bearing an identical catalytic domain as ED5 and ED5SCR but flanked by nonsense arms had any influence”.

For `Oc1ccc(-c2nc(-c3ccncc3)c(-c3ccc(F)cc3)[nH]2)cc1` [SB202190, reference compound], in data set [1], the “insulin-inducible DNA synthesis” value was “failed to affect DNA synthesis”.

In the case of `COc1cccc(-c2cc(=O)c3ccccc3o2)c1N` [PD98059, reference compound], the “insulin-inducible DNA synthesis” value in data set [1] is given as “inhibited insulin-inducible DNA synthesis in a dose-dependent manner”.

With “SEQ ID NO:24: size matched DNAzyme with different sequence, 5′-tcagctgcaGGCTAGCTACAACGActcggcctt (DNA TCAGCTGCAGGCTAGCTACAACGACTCGGCCT; DNA, [invdT] at 3' end, backbone not given here) [reference compound]”, the “EGR-1 expression in HepG2 cells” value in the data set on EGR-1 [4] is “no effect”.

As to `O=C[C@H](O)[C@@H](O)[C@H](O)[C@H](O)CO` [glucose], the “Egr-1 binding activity” value with Egr-1 [3] is “did not increase”.

As to `CCCCCCCCCCCCCC(=O)O[C@@H]1[C@@H](C)[C@@]2(O)[C@@H](C=C(CO)C[C@]3(O)C(=O)C(C)=C[C@@H]23)[C@@H]2C(C)(C)[C@]12OC(C)=O` [PMA, Phorbol-12-myristrate 13-acetate, reference compound], the “Egr-1 mRNA levels” value with Egr-1 mRNA is on record as “elevated steady-state Egr-1 mRNA levels”.
